Experimental data taken from PubChem BioAssay (NCI).
Several values for one entry are separate records, joined by “and”; a condition that tells them apart may be missing. Equal values may be shown once.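 Values below derive from 48-hour exposures of cells grown in 96-well plates, with endpoints linearly interpolated between the two concentrations bracketing the appropriate inhibition level. Abbreviation: GI50, concentration required for 50% inhibition of growth. The concentration for full growth arrest is given as TGI.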

Key:
Assay in all cases: NCI tumour cell line growth inhibition, 48 h
MOLT-4 leukemia = tested on: MOLT-4 leukemia
T-47D breast = tested on: T-47D breast
CAKI-1 renal = tested on: CAKI-1 renal
ACHN renal = tested on: ACHN renal
RXF 393 renal = tested on: RXF 393 renal
SR leukemia = tested on: SR leukemia
HCT-116 colon = tested on: HCT-116 colon
HL-60(TB) leukemia = tested on: HL-60(TB) leukemia
OVCAR-4 ovarian = tested on: OVCAR-4 ovarian
HOP-92 NSCLC = tested on: HOP-92 NSCLC
U251 CNS = tested on: U251 CNS
NCI/ADR-RES ovarian = tested on: NCI/ADR-RES ovarian
EKVX NSCLC = tested on: EKVX NSCLC
SNB-19 CNS = tested on: SNB-19 CNS
786-0 renal = tested on: 786-0 renal
NCI-H226 lung = tested on: NCI-H226 lung
OVCAR-3 ovarian = tested on: OVCAR-3 ovarian
OVCAR-5 ovarian = tested on: OVCAR-5 ovarian
HOP-62 NSCLC = tested on: HOP-62 NSCLC
UACC-257 melanoma = tested on: UACC-257 melanoma
OVCAR-8 ovarian = tested on: OVCAR-8 ovarian
MALME-3M melanoma = tested on: MALME-3M melanoma
A549 NSCLC = tested on: A549 NSCLC
SNB-75 CNS = tested on: SNB-75 CNS
SK-MEL-5 melanoma = tested on: SK-MEL-5 melanoma
MCF7 breast = tested on: MCF7 breast
HCT-15 colon = tested on: HCT-15 colon
COLO 205 colon = tested on: COLO 205 colon
SK-MEL-2 melanoma = tested on: SK-MEL-2 melanoma
SF-539 CNS = tested on: SF-539 CNS
NCI-H522 lung = tested on: NCI-H522 lung
UO-31 renal = tested on: UO-31 renal
SF-268 CNS = tested on: SF-268 CNS
K-562 leukemia = tested on: K-562 leukemia
HT29 colon = tested on: HT29 colon
RPMI-8226 leukemia = tested on: RPMI-8226 leukemia
SF-295 CNS = tested on: SF-295 CNS
M14 melanoma = tested on: M14 melanoma
LOX IMVI melanoma = tested on: LOX IMVI melanoma
HS 578T breast = tested on: HS 578T breast
SK-OV-3 ovarian = tested on: SK-OV-3 ovarian
SK-MEL-28 melanoma = tested on: SK-MEL-28 melanoma
HCC-2998 colon = tested on: HCC-2998 colon
SW-620 colon = tested on: SW-620 colon
SN12C renal = tested on: SN12C renal
CCRF-CEM leukemia = tested on: CCRF-CEM leukemia
BT-549 breast = tested on: BT-549 breast
MDA-MB-231 breast = tested on: MDA-MB-231 breast
MDA-MB-435 = tested on: MDA-MB-435
PC-3 prostate = tested on: PC-3 prostate
KM12 colon = tested on: KM12 colon
NCI-H460 lung = tested on: NCI-H460 lung
TK-10 renal = tested on: TK-10 renal
A498 renal = tested on: A498 renal
DU-145 prostate = tested on: DU-145 prostate
IGROV1 ovarian = tested on: IGROV1 ovarian
UACC-62 melanoma = tested on: UACC-62 melanoma
NCI-H23 lung = tested on: NCI-H23 lung

CS(=O)(=O)c1nccc(-c2c(-c3ccc(F)c(OCCc4ccccc4)c3)nc3sccn23)n1
GI50 (MOLT-4 leukemia): 17.5 µM | TGI (MOLT-4 leukemia): 39.7 µM | GI50 (T-47D breast): 10.3 µM | TGI (T-47D breast): 25.7 µM | GI50 (CAKI-1 renal): 15.2 µM | TGI (CAKI-1 renal): 28.5 µM | GI50 (ACHN renal): 15.4 µM | TGI (ACHN renal): 28.7 µM | GI50 (RXF 393 renal): 14.4 µM | TGI (RXF 393 renal): 27.6 µM | GI50 (SR leukemia): 15.6 µM | TGI (SR leukemia): 40.6 µM | GI50 (HCT-116 colon): 16.3 µM | TGI (HCT-116 colon): 29.8 µM | GI50 (HL-60(TB) leukemia): 5.17 µM | TGI (HL-60(TB) leukemia): 22.2 µM | GI50 (OVCAR-4 ovarian): 15.4 µM | TGI (OVCAR-4 ovarian): 29 µM | GI50 (HOP-92 NSCLC): 8.62 µM | TGI (HOP-92 NSCLC): 22.1 µM | GI50 (U251 CNS): 16.6 µM | TGI (U251 CNS): 30.2 µM | GI50 (NCI/ADR-RES ovarian): 16.8 µM | TGI (NCI/ADR-RES ovarian): 34.3 µM | GI50 (EKVX NSCLC): 15.8 µM | TGI (EKVX NSCLC): 29.2 µM | GI50 (SNB-19 CNS): 16.2 µM | TGI (SNB-19 CNS): 31.6 µM | GI50 (786-0 renal): 16.5 µM | TGI (786-0 renal): 30.8 µM | GI50 (NCI-H226 lung): 14.1 µM | TGI (NCI-H226 lung): 27.8 µM | GI50 (OVCAR-3 ovarian): 15.4 µM | TGI (OVCAR-3 ovarian): 29 µM | GI50 (OVCAR-5 ovarian): 19.2 µM | TGI (OVCAR-5 ovarian): 44.8 µM | GI50 (HOP-62 NSCLC): 17 µM | TGI (HOP-62 NSCLC): 32.9 µM | GI50 (UACC-257 melanoma): 15 µM | TGI (UACC-257 melanoma): 29.6 µM | GI50 (OVCAR-8 ovarian): 16.7 µM | TGI (OVCAR-8 ovarian): 33.2 µM | GI50 (MALME-3M melanoma): 18.2 µM | TGI (MALME-3M melanoma): 33.1 µM | GI50 (A549 NSCLC): 17.1 µM | TGI (A549 NSCLC): 33.5 µM | GI50 (SNB-75 CNS): 11.8 µM | TGI (SNB-75 CNS): 24 µM | GI50 (SK-MEL-5 melanoma): 17.2 µM | TGI (SK-MEL-5 melanoma): 31.8 µM | GI50 (MCF7 breast): 4.29 µM | TGI (MCF7 breast): 18.7 µM | GI50 (HCT-15 colon): 16.2 µM | TGI (HCT-15 colon): 32.2 µM | GI50 (COLO 205 colon): 19.1 µM | TGI (COLO 205 colon): 37.7 µM | GI50 (SK-MEL-2 melanoma): 15.8 µM | TGI (SK-MEL-2 melanoma): 30.5 µM | GI50 (SF-539 CNS): 16.3 µM | TGI (SF-539 CNS): 30.3 µM | GI50 (NCI-H522 lung): 13.5 µM | TGI (NCI-H522 lung): 30.7 µM | GI50 (UO-31 renal): 14.1 µM | TGI (UO-31 renal): 27.1 µM | GI50 (SF-268 CNS): 16.4 µM | TGI (SF-268 CNS): 33.1 µM | GI50 (K-562 leukemia): 20.4 µM | TGI (K-562 leukemia): 68.3 µM | GI50 (HT29 colon): 16.7 µM | TGI (HT29 colon): 33.8 µM | GI50 (RPMI-8226 leukemia): 20.5 µM | TGI (RPMI-8226 leukemia): 55 µM | GI50 (SF-295 CNS): 18.5 µM | TGI (SF-295 CNS): 33.3 µM | GI50 (M14 melanoma): 17.7 µM | TGI (M14 melanoma): 32.1 µM | GI50 (LOX IMVI melanoma): 14.9 µM | TGI (LOX IMVI melanoma): 31.8 µM | GI50 (HS 578T breast): 17.2 µM | TGI (HS 578T breast): 42.9 µM | GI50 (SK-OV-3 ovarian): 19.9 µM | TGI (SK-OV-3 ovarian): 45.2 µM | GI50 (SK-MEL-28 melanoma): 15.2 µM | TGI (SK-MEL-28 melanoma): 28.9 µM | GI50 (HCC-2998 colon): 15.4 µM | TGI (HCC-2998 colon): 30.2 µM | GI50 (SW-620 colon): 18.4 µM | TGI (SW-620 colon): 35.8 µM | GI50 (SN12C renal): 15.9 µM | TGI (SN12C renal): 34.4 µM | GI50 (CCRF-CEM leukemia): 19.1 µM | TGI (CCRF-CEM leukemia): 45.6 µM | GI50 (BT-549 breast): 15.6 µM | TGI (BT-549 breast): 30.1 µM | GI50 (MDA-MB-231 breast): 17.6 µM | TGI (MDA-MB-231 breast): 34.4 µM | GI50 (MDA-MB-435): 16.7 µM | TGI (MDA-MB-435): 31 µM | GI50 (PC-3 prostate): 17.1 µM | TGI (PC-3 prostate): 35.6 µM | GI50 (KM12 colon): 17.3 µM | TGI (KM12 colon): 32.6 µM | GI50 (NCI-H460 lung): 14 µM | TGI (NCI-H460 lung): 30 µM | GI50 (TK-10 renal): 15.4 µM | TGI (TK-10 renal): 29.7 µM | GI50 (A498 renal): 11.8 µM | TGI (A498 renal): 24.3 µM | GI50 (DU-145 prostate): 4.3 µM | TGI (DU-145 prostate): 14.8 µM | GI50 (IGROV1 ovarian): 15.4 µM | TGI (IGROV1 ovarian): 33.5 µM | GI50 (UACC-62 melanoma): 17.4 µM | TGI (UACC-62 melanoma): 36.7 µM

COc1cc(C)c(-c2ccc(OC)c(=O)cc2C)c(OC)c1OC
TGI (MOLT-4 leukemia): > 100 µM | TGI (T-47D breast): > 100 µM | TGI (CAKI-1 renal): > 100 µM | TGI (ACHN renal): > 100 µM | TGI (RXF 393 renal): > 100 µM | TGI (SR leukemia): > 100 µM | TGI (HCT-116 colon): > 100 µM | GI50 (OVCAR-4 ovarian): 44.2 µM and > 100 µM | TGI (OVCAR-4 ovarian): > 100 µM | GI50 (HOP-92 NSCLC): 3.53 µM and 22.4 µM | TGI (HOP-92 NSCLC): > 100 µM | TGI (U251 CNS): > 100 µM | GI50 (NCI/ADR-RES ovarian): > 100 µM | TGI (NCI/ADR-RES ovarian): > 100 µM | TGI (EKVX NSCLC): > 100 µM | TGI (SNB-19 CNS): > 100 µM | TGI (786-0 renal): > 100 µM | TGI (NCI-H226 lung): > 100 µM | TGI (OVCAR-5 ovarian): > 100 µM | TGI (HOP-62 NSCLC): > 100 µM | TGI (UACC-257 melanoma): > 100 µM | TGI (OVCAR-8 ovarian): > 100 µM | TGI (NCI-H23 lung): > 100 µM | GI50 (MALME-3M melanoma): > 100 µM | TGI (MALME-3M melanoma): > 100 µM | TGI (A549 NSCLC): > 100 µM | GI50 (SNB-75 CNS): > 100 µM | TGI (SNB-75 CNS): > 100 µM | TGI (SK-MEL-5 melanoma): 38.3 µM and > 100 µM | TGI (MCF7 breast): > 100 µM | TGI (HCT-15 colon): > 100 µM | TGI (SF-539 CNS): > 100 µM | TGI (UO-31 renal): > 100 µM | TGI (SF-268 CNS): > 100 µM | TGI (K-562 leukemia): > 100 µM | TGI (RPMI-8226 leukemia): > 100 µM | TGI (SF-295 CNS): > 100 µM | TGI (M14 melanoma): > 100 µM | TGI (LOX IMVI melanoma): > 100 µM | GI50 (HS 578T breast): > 100 µM | TGI (HS 578T breast): > 100 µM | TGI (SK-OV-3 ovarian): > 100 µM | GI50 (SK-MEL-28 melanoma): > 100 µM | TGI (SK-MEL-28 melanoma): > 100 µM | TGI (HCC-2998 colon): > 100 µM | TGI (SW-620 colon): > 100 µM | TGI (SN12C renal): > 100 µM | TGI (CCRF-CEM leukemia): > 100 µM | TGI (MDA-MB-231 breast): > 100 µM | TGI (PC-3 prostate): > 100 µM | TGI (KM12 colon): > 100 µM | TGI (NCI-H460 lung): > 100 µM | GI50 (TK-10 renal): 66.3 µM and > 100 µM | TGI (TK-10 renal): > 100 µM | TGI (DU-145 prostate): > 100 µM | TGI (IGROV1 ovarian): > 100 µM | TGI (UACC-62 melanoma): > 100 µM
